According to patent US11325938B2, “CD73 inhibitors” (ORIC Pharmaceuticals, Inc., priority 2018, dated 2022):

Target: CD73 (Homo sapiens (Human), UniProt P21589)
Experiment: Biochemical assay: inhibition of CD73 activity (AMP hydrolysis, Malachite Green readout)
Conditions: CD73 0.3208 nM, AMP 15 μM, 25 mM Tris-HCl pH 7.4, RT, absorbance 620 nm
In short: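 Human CD73 (320 pM final) preincubated 15 min at RT with compounds (10-point ½-log titration from 100 μM, duplicates) in 25 mM Tris-HCl pH 7.4, 5 mM MgCl2, 0.01% Brij-35, 0.01% BSA. 15 μM AMP added, 10 min at RT; released phosphate read by Malachite Green absorbance; IC50 determined.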

Sequence of CD73 (P21589 27-574): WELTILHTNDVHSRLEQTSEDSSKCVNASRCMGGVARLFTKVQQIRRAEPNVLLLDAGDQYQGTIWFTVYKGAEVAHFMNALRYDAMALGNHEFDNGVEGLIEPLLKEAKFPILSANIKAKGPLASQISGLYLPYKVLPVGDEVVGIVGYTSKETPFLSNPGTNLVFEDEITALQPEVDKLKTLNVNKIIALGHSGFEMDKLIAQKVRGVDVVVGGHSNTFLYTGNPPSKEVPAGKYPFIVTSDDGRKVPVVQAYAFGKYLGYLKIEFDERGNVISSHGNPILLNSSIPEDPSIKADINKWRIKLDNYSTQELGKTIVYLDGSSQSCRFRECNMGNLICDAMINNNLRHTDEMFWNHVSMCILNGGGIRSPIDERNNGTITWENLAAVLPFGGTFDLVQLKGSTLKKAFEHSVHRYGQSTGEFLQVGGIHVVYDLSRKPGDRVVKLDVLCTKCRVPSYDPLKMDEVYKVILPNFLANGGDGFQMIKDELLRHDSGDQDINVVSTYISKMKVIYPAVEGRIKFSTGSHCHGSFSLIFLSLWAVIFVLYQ

IC50, ≤ 100 nM:
CC(CO)(OC[C@H]1O[C@@H](n2ncc3c(NC4CCC4)nc(Cl)nc32)[C@H](O)[C@@H]1O)P(=O)(O)O (stereo partly drawn) [Example 130, (2-(((2R,3S,4R,5R)-5-(6-chloro-4-(cyclobutylamino)-1H-pyrazolo[3,4-d]pyrimidin-1-yl)-3,4-dihydroxytetrahydrofuran-2-yl)methoxy)-1-hydroxypropan-2-yl)phosphonic acid]
COC[C@](C)(OC[C@H]1O[C@@H](n2ncc3c(NCC4CC4)nc(Cl)nc32)[C@H](O)[C@@H]1O)P(=O)(O)O [Example 131, ((R)-2-(((2R,3S,4R,5R)-5-(6-chloro-4-((cyclopropylmethyl)amino)-1H-pyrazolo[3,4-d]pyrimidin-1-yl)-3,4-dihydroxytetrahydrofuran-2-yl)methoxy)-1-methoxypropan-2-yl)phosphonic acid]
O=P(O)(O)C(CO)(CO)OC[C@H]1O[C@@H](n2ncc3c(NCC4CC4)nc(Cl)nc32)[C@H](O)[C@@H]1O [Example 132, (2-(((2R,3S,4R,5R)-5-(6-chloro-4-((cyclopropylmethyl)amino)-1H-pyrazolo[3,4-d]pyrimidin-1-yl)-3,4-dihydroxytetrahydrofuran-2-yl)methoxy)-1,3-dihydroxypropan-2-yl)phosphonic acid]
CC(CO)(OC[C@H]1O[C@@H](n2ncc3c(N[C@@H]4CC[C@H]5CCC[C@H]54)nc(Cl)nc32)[C@H](O)[C@@H]1O)P(=O)(O)O (stereo partly drawn) [Example 133, (2-(((2R,3S,4R,5R)-5-(6-chloro-4-(((1R,3aR,6aR)-octahydropentalen-1-yl)amino)-1H-pyrazolo[3,4-d]pyrimidin-1-yl)-3,4-dihydroxytetrahydrofuran-2-yl)methoxy)-1-hydroxypropan-2-yl)phosphonic aci]
C[C@@](CO)(OC[C@H]1O[C@@H](n2ncc3c(NC4CCCC4)nc(OCCO)nc32)[C@H](O)[C@@H]1O)P(=O)(O)O [Example 134, ((R)-2-(((2R,3S,4R,5R)-5-(4-(cyclopentylamino)-6-(2-hydroxyethoxy)-1H-pyrazolo[3,4-d]pyrimidin-1-yl)-3,4-dihydroxytetrahydrofuran-2-yl)methoxy)-1-hydroxypropan-2-yl)phosphonic acid]
CC(CO)(OC[C@H]1O[C@@H](n2ncc3c(N[C@@H]4CCC45CCC5)nc(Cl)nc32)[C@H](O)[C@@H]1O)P(=O)(O)O (stereo partly drawn) [Example 135, (2-(((2R,3S,4R,5R)-5-(6-chloro-4-(((R)-spiro[3.3]heptan-1-yl)amino)-1H-pyrazolo[3,4-d]pyrimidin-1-yl)-3,4-dihydroxytetrahydrofuran-2-yl)methoxy)-1-hydroxypropan-2-yl)phosphonic acid]
CC(CO)(OC[C@H]1O[C@@H](n2ncc3c(N[C@H]4CCC45CCC5)nc(Cl)nc32)[C@H](O)[C@@H]1O)P(=O)(O)O (stereo partly drawn) [Example 136, (2-(((2R,3S,4R,5R)-5-(6-chloro-4-(((S)-spiro[3.3]heptan-1-yl)amino)-1H-pyrazolo[3,4-d]pyrimidin-1-yl)-3,4-dihydroxytetrahydrofuran-2-yl)methoxy)-1-hydroxypropan-2-yl)phosphonic acid]
CCS(=O)(=O)C[C@](C)(OC[C@H]1O[C@@H](n2ncc3c(NC4CCCC4)nc(Cl)nc32)[C@H](O)[C@@H]1O)P(=O)(O)O [Example 137, ((R)-2-(((2R,3S,4R,5R)-5-(6-chloro-4-(cyclopentylamino)-1H-pyrazolo[3,4-d]pyrimidin-1-yl)-3,4-dihydroxytetrahydrofuran-2-yl)methoxy)-1-(ethylsulfonyl)propan-2-yl)phosphonic acid]
CCS(=O)(=O)C[C@@](C)(OC[C@H]1O[C@@H](n2ncc3c(NC4CCCC4)nc(Cl)nc32)[C@H](O)[C@@H]1O)P(=O)(O)O [Example 138, ((S)-2-(((2R,3S,4R,5R)-5-(6-chloro-4-(cyclopentylamino)-1H-pyrazolo[3,4-d]pyrimidin-1-yl)-3,4-dihydroxytetrahydrofuran-2-yl)methoxy)-1-(ethylsulfonyl)propan-2-yl)phosphonic acid]
C[C@@](CO)(OC[C@H]1O[C@@H](n2nnc3c(NC4CCCC4)cc(Cl)nc32)[C@H](O)[C@@H]1O)P(=O)(O)O [Example 139, ((R)-2-(((2R,3S,4R,5R)-5-(5-chloro-7-(cyclopentylamino)-3H-[1,2,3]triazolo[4,5-b]pyridin-3-yl)-3,4-dihydroxytetrahydrofuran-2-yl)methoxy)-1-hydroxypropan-2-yl)phosphonic acid]
C[C@](CO)(OC[C@H]1O[C@@H](n2nnc3c(NC4CCCC4)cc(Cl)nc32)[C@H](O)[C@@H]1O)P(=O)(O)O [Example 140, ((S)-2-(((2R,3S,4R,5R)-5-(5-chloro-7-(cyclopentylamino)-3H-[1,2,3]triazolo[4,5-b]pyridin-3-yl)-3,4-dihydroxytetrahydrofuran-2-yl)methoxy)-1-hydroxypropan-2-yl)phosphonic acid]
CC(CO)(OC[C@H]1O[C@@H](n2ncc3c(N[C@H]4CC[C@@H]5CCC[C@@H]54)nc(Cl)nc32)[C@H](O)[C@@H]1O)P(=O)(O)O (stereo partly drawn) [Example 141, (2-(((2R,3S,4R,5R)-5-(6-chloro-4-(((1S,3aS,6aS)-octahydropentalen-1-yl)amino)-1H-pyrazolo[3,4-d]pyrimidin-1-yl)-3,4-dihydroxytetrahydrofuran-2-yl)methoxy)-1-hydroxypropan-2-yl)phosphonic acid]
COCC(OC[C@H]1O[C@@H](n2nnc3c(NC4CCCC4)nc(Cl)nc32)[C@H](O)[C@@H]1O)P(=O)(O)O (stereo partly drawn) [Example 142, (1-(((2R,3S,4R,5R)-5-(5-chloro-7-(cyclopentylamino)-3H-[1,2,3]triazolo[4,5-d]pyrimidin-3-yl)-3,4-dihydroxytetrahydrofuran-2-yl)methoxy)-2-methoxyethyl)phosphonic acid]
COC[C@@](C)(OC[C@H]1O[C@@H](n2nnc3c(NC4CCCC4)cc(Cl)nc32)[C@H](O)[C@@H]1O)P(=O)(O)O [Example 143, ((S)-2-(((2R,3S,4R,5R)-5-(5-chloro-7-(cyclopentylamino)-3H-[1,2,3]triazolo[4,5-b]pyridin-3-yl)-3,4-dihydroxytetrahydrofuran-2-yl)methoxy)-1-methoxypropan-2-yl)phosphonic acid]
O=P(O)(O)[C@H](CO)OC[C@H]1O[C@@H](n2nnc3c(NC4CCCC4)cc(Cl)nc32)[C@H](O)[C@@H]1O [Example 144, ((R)-1-(((2R,3S,4R,5R)-5-(5-chloro-7-(cyclopentylamino)-3H-[1,2,3]triazolo[4,5-b]pyridin-3-yl)-3,4-dihydroxytetrahydrofuran-2-yl)methoxy)-2-hydroxyethyl)phosphonic acid]
COCCOc1nc(NC2CCCC2)c2cnn([C@@H]3O[C@H](COC(C)(CO)P(=O)(O)O)[C@@H](O)[C@H]3O)c2n1 (stereo partly drawn) [Example 145, (2-(((2R,3S,4R,5R)-5-(4-(cyclopentylamino)-6-(2-methoxyethoxy)-1H-pyrazolo[3,4-d]pyrimidin-1-yl)-3,4-dihydroxytetrahydrofuran-2-yl)methoxy)-1-hydroxypropan-2-yl)phosphonic acid]
CC(C)(O)COc1nc(NC2CCCC2)c2cnn([C@@H]3O[C@H](COC(C)(CO)P(=O)(O)O)[C@@H](O)[C@H]3O)c2n1 (stereo partly drawn) [Example 146, (2-(((2R,3S,4R,5R)-5-(4-(cyclopentylamino)-6-(2-hydroxy-2-methylpropoxy)-1H-pyrazolo[3,4-d]pyrimidin-1-yl)-3,4-dihydroxytetrahydrofuran-2-yl)methoxy)-1-hydroxypropan-2-yl)phosphonic acid]
C[C@](CO)(OC[C@H]1O[C@@H](n2ncc3c(NC4CCCC4)nc(OCCO)nc32)[C@H](O)[C@@H]1O)P(=O)(O)O [Example 147, ((S)-2-(((2R,3S,4R,5R)-5-(4-(cyclopentylamino)-6-(2-hydroxyethoxy)-1H-pyrazolo[3,4-d]pyrimidin-1-yl)-3,4-dihydroxytetrahydrofuran-2-yl)methoxy)-1-hydroxypropan-2-yl)phosphonic acid]
COC[C@](C)(OC[C@H]1O[C@@H](n2nnc3c(NC4CCCC4)cc(Cl)nc32)[C@H](O)[C@@H]1O)P(=O)(O)O [Example 148, ((R)-2-(((2R,3S,4R,5R)-5-(5-chloro-7-(cyclopentylamino)-3H-[1,2,3]triazolo[4,5-b]pyridin-3-yl)-3,4-dihydroxytetrahydrofuran-2-yl)methoxy)-1-methoxypropan-2-yl)phosphonic acid]
O=P(O)(O)[C@@H](CO)OC[C@H]1O[C@@H](n2nnc3c(NC4CCCC4)cc(Cl)nc32)[C@H](O)[C@@H]1O [Example 149, ((S)-1-(((2R,3S,4R,5R)-5-(5-chloro-7-(cyclopentylamino)-3H-[1,2,3]triazolo[4,5-b]pyridin-3-yl)-3,4-dihydroxytetrahydrofuran-2-yl)methoxy)-2-hydroxyethyl)phosphonic acid]
COC[C@](CO)(OC[C@H]1O[C@@H](n2ncc3c(NC4CCCC4)nc(Cl)nc32)[C@H](O)[C@@H]1O)P(=O)(O)O [Example 150, ((R)-2-(((2R,3S,4R,5R)-5-(6-chloro-4-(cyclopentylamino)-1H-pyrazolo[3,4-d]pyrimidin-1-yl)-3,4-dihydroxytetrahydrofuran-2-yl)methoxy)-1-hydroxy-3-methoxypropan-2-yl)phosphonic acid]
CC(CO)(OC[C@H]1O[C@@H](n2ncc3c(NC4CCCC4)cc(Cl)nc32)[C@H](O)[C@@H]1O)P(=O)(O)O (stereo partly drawn) [Example 152, (2-(((2R,3S,4R,5R)-5-(6-chloro-4-(cyclopentylamino)-1H-pyrazolo[3,4-b]pyridin-1-yl)-3,4-dihydroxytetrahydrofuran-2-yl)methoxy)-1-hydroxypropan-2-yl)phosphonic acid]
